# Source: ChEMBL document CHEMBL1201862, “PubChem BioAssay data set” (2004)
#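 48-hour exposure; five concentrations; linearly interpolated endpoints. GI50 is the concentration that inhibits growth by half.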 Activity calls are given as the source filed them. Cut-off read from the data, not from the text of the source: active = GI50 up to about 1.1 µM and inactive = higher.
# How the values were obtained:
# Assay in all cases: NCI anticancer screen, dose series, 48 h
# [1] = system: M19-MEL
# [2] = system: NCI-H522
# [3] = system: IGROV-1
# [4] = system: EKVX
# [5] = system: NCI-H460
# [6] = system: DLD-1
# [7] = system: RPMI-8226
# [8] = system: OVCAR-8
# [9] = system: HCT-15
# [10] = system: HOP-62
# [11] = system: OVCAR-3
# [12] = system: NCI-H226
# [13] = system: SK-MEL-28
# [14] = system: RXF 393
# [15] = system: DMS-273
# [16] = system: M14
# [17] = system: SNB-19
# [18] = system: SR
# [19] = system: SN12C
# [20] = system: HOP-18
# [21] = system: SNB-78
# [22] = system: LOX IMVI
# [23] = system: NCI-H23
# [24] = system: SK-MEL-2
# [25] = system: 786-0
# [26] = system: MOLT-4
# [27] = system: CCRF-CEM
# [28] = system: LXFL 529
# [29] = system: UACC-62
# [30] = system: XF498
# [31] = system: UO-31
# [32] = system: A549
# [33] = system: SF-295
# [34] = system: UACC-257
# [35] = system: OVCAR-5
# [36] = system: SF-268
# [37] = system: K562
# [38] = system: DMS-114
# [39] = system: SK-MEL-5
# [40] = system: COLO 205
# [41] = system: KM12
# [42] = system: SK-OV-3
# [43] = system: Malme-3M
# [44] = system: SNB-75
# [45] = system: CAKI-1
# [46] = system: ACHN
# [47] = system: SF-539
# [48] = system: HT-29
# [49] = system: HCC 2998
# [50] = system: U-251
# [51] = system: SW-620
# [52] = system: HCT-116
# [53] = system: HOP-92
# [54] = system: KM-20L2
# [55] = system: TK-10
# [56] = system: HL-60
# [57] = system: OVCAR-4
structure (smiles),measurement,setting,value
CN(CCO)c1nc(N)cc(=O)[nH]1,GI50,[1],> 100 µM (inactive)
same,GI50,[2],> 100 µM (inactive)
same,GI50,[3],> 100 µM (inactive)
same,GI50,[4],> 100 µM (inactive)
same,GI50,[5],> 100 µM (inactive)
same,GI50,[6],> 100 µM (inactive)
same,GI50,[7],> 100 µM (inactive)
same,GI50,[8],> 100 µM (inactive)
same,GI50,[9],> 100 µM
same,GI50,[10],> 100 µM (inactive)
same,GI50,[11],> 100 µM (inactive)
same,GI50,[12],> 100 µM (inactive)
same,GI50,[13],> 100 µM (inactive)
same,GI50,[14],> 100 µM (inactive)
same,GI50,[15],> 100 µM (inactive)
same,GI50,[16],> 100 µM (inactive)
same,GI50,[17],> 100 µM (inactive)
same,GI50,[18],> 100 µM (inactive)
same,GI50,[19],> 100 µM (inactive)
same,GI50,[20],> 100 µM (inactive)
same,GI50,[21],> 100 µM (inactive)
same,GI50,[22],> 100 µM (inactive)
same,GI50,[23],> 100 µM (inactive)
same,GI50,[24],> 100 µM (inactive)
same,GI50,[25],> 100 µM (inactive)
same,GI50,[26],> 100 µM (inactive)
same,GI50,[27],> 100 µM (inactive)
same,GI50,[28],> 100 µM (inactive)
same,GI50,[29],> 100 µM (inactive)
same,GI50,[30],> 100 µM (inactive)
same,GI50,[31],> 100 µM (inactive)
same,GI50,[32],> 100 µM (inactive)
same,GI50,[33],> 100 µM (inactive)
same,GI50,[34],> 100 µM (inactive)
same,GI50,[35],> 100 µM (inactive)
same,GI50,[36],> 100 µM (inactive)
same,GI50,[37],> 100 µM (inactive)
same,GI50,[38],> 100 µM (inactive)
same,GI50,[39],> 100 µM (inactive)
same,GI50,[40],> 100 µM (inactive)
same,GI50,[41],> 100 µM (inactive)
same,GI50,[42],> 100 µM (inactive)
same,GI50,[43],> 100 µM (inactive)
same,GI50,[44],38.7 µM (inactive)
same,GI50,[45],> 100 µM (inactive)
same,GI50,[46],> 100 µM (inactive)
same,GI50,[47],> 100 µM (inactive)
same,GI50,[48],> 100 µM (inactive)
same,GI50,[49],> 100 µM (inactive)
same,GI50,[50],> 100 µM (inactive)
same,GI50,[51],> 100 µM (inactive)
same,GI50,[52],> 100 µM (inactive)
same,GI50,[53],> 100 µM (inactive)
same,GI50,[54],> 100 µM (inactive)
same,GI50,[55],> 100 µM (inactive)
same,GI50,[56],> 100 µM (inactive)
CC1CCC2CC(=O)OC([C@@H]3C(=O)O[C@@H](C4=CCCC4)C4C(C)CCC43)C12 (stereo partly specified),GI50,[1],> 100 µM (inactive)
same,GI50,[2],51.3 µM (inactive)
same,GI50,[3],80.2 µM (inactive)
same,GI50,[4],> 100 µM (inactive)
same,GI50,[5],58.1 µM (inactive)
same,GI50,[6],84.5 µM (inactive)
same,GI50,[7],37.2 µM (inactive)
same,GI50,[8],68.5 µM (inactive)
same,GI50,[9],48.2 µM
same,GI50,[10],> 100 µM (inactive)
same,GI50,[11],73.1 µM (inactive)
same,GI50,[12],> 100 µM (inactive)
same,GI50,[13],> 100 µM (inactive)
same,GI50,[14],> 100 µM (inactive)
same,GI50,[15],> 100 µM (inactive)
same,GI50,[16],> 100 µM (inactive)
same,GI50,[17],> 100 µM (inactive)
same,GI50,[18],39 µM (inactive)
same,GI50,[19],> 100 µM (inactive)
same,GI50,[20],> 100 µM (inactive)
same,GI50,[21],> 100 µM (inactive)
same,GI50,[22],> 100 µM (inactive)
same,GI50,[23],> 100 µM (inactive)
same,GI50,[24],> 100 µM (inactive)
same,GI50,[25],> 100 µM (inactive)
same,GI50,[26],36.2 µM (inactive)
same,GI50,[27],34.8 µM (inactive)
same,GI50,[28],47.4 µM (inactive)
same,GI50,[29],> 100 µM (inactive)
same,GI50,[30],> 100 µM (inactive)
same,GI50,[31],> 100 µM (inactive)
same,GI50,[32],> 100 µM (inactive)
same,GI50,[33],79.1 µM (inactive)
same,GI50,[34],> 100 µM (inactive)
same,GI50,[36],> 100 µM (inactive)
same,GI50,[37],43.7 µM (inactive)
same,GI50,[38],27.7 µM (inactive)
same,GI50,[39],97.7 µM (inactive)
same,GI50,[40],32.4 µM (inactive)
same,GI50,[41],42 µM (inactive)
same,GI50,[57],> 10 µM (inactive)
same,GI50,[42],> 100 µM (inactive)
same,GI50,[43],> 100 µM (inactive)
same,GI50,[44],> 100 µM (inactive)
same,GI50,[45],72.6 µM (inactive)
same,GI50,[46],61.4 µM (inactive)
same,GI50,[47],> 100 µM (inactive)
same,GI50,[48],61 µM (inactive)
same,GI50,[49],> 100 µM (inactive)
same,GI50,[50],48.6 µM (inactive)
same,GI50,[51],70 µM (inactive)
same,GI50,[52],43.9 µM (inactive)
same,GI50,[54],92.3 µM (inactive)
same,GI50,[55],54.5 µM (inactive)
same,GI50,[56],23.1 µM (inactive)
